This is an account of results in US8361510B2, “Nanogels for cellular delivery of therapeutics” (Georgia Tech Research Corporation, priority 2008, dated 2013).

Where no end group is shown, it is not given here.

Format in all cases: cell-based
For data set [1], the system named is Hey cells. Put plainly: Trypan blue exclusion assay. The method, then: Toxicity Studies—Trypan blue exclusion assay. Hey cells were plated onto an 8-well chamber slide (1×10^4 cells/well) and allowed to adhere overnight at 37° C. and 5% CO2. The media was removed, the wells washed with PBS, and the medium replaced. PNIPMAm nanogels, YSA-conjugated nanogels, and SCR-conjugated nanogels were added to cells and incubated for 72 h. Untreated cells were used as controls. After 72 h, the cells washed with PBS, and a 1:1 solution of trypan blue was added to each well. After 1 min, the trypan blue was removed, the cells were washed with PBS, fixed with 2% (v/v) paraformaldehyde, and air dried. Each well was then viewed via bright field microscopy to determine the number of stained (dead) versus unstained cells. Five fields were viewed for each treatment.

Data set [2] relates to Hey cells. The experiment in a line: Flow cytometry of nanogel binding/uptake. The conditions noted are these: 0.8 mg/mL nanogels, four hours. Here is the method:
Flow cytometry. Hey cells were plated at 2.5×10^5 cells/well in a 12-well, cell culture plate. Cells were allowed to adhere overnight in an incubator at 37° C. in a 5% CO2 atmosphere. Cells were washed, and fresh medium was added containing YSA-pNIPMAm or SCR-pNIPMAm nanogels at a concentration of 0.8 mg/mL and incubated for four hours. Following incubation, the cells were washed with PBS and removed from the plate by Trypsin-EDTA treatment. The cells were washed with PBS and fixed with 2% (v/v) paraformaldehyde. Cells were analyzed using a LSR Flow Cytometer (BD Biosciences). Data analysis was carried out using FlowJo software.

For data set [3], the system named is EGFR. Put plainly: EGFR expression by immunoblotting in Hey cells. The settings on record: Example 2. Here is the method:
Immunoblotting. Hey cells were plated into 6-well plates (5×10^5/well) and allowed to adhere overnight at 37° C., 5% CO2. The cells were lysed with 100 μL of lysis buffer (50 mM Tris-HCl, pH 7.5, 150 mM NaCl, 2 mM EDTA (Fisher), 2 mM EGTA (Fisher), 1 mM sodium orthovanadate, 2.5 mM sodium pyrophosphate, 1 mM β-gycerolphosphate, 1 mM phenylmethanesulfonyl fluoride, 10 μg/mL aprotinin, 10 μg/mL leupeptin, 1% Triton X-100, and 5% glycerol), and the cell lysates sonicated four times for five seconds each. The lysates were cleared by centrifugation at 11,000×g rcf for […] at 4° C. Cell lysates were prepared for analysis by the addition of an equal volume of Laemmli 2× sample buffer. The samples were heated to 95° C. for […] to denature the proteins. The proteins were separated on a 10% SDS-PAGE gel and transferred onto nitrocellulose. The blots were blocked with either 5% nonfat dry milk (NFDM) or 5% bovine serum albumin (BSA) in 10 mM Tris-buffered saline, pH 7.5 plus 1% Tween 20 (TBST, BioRad) for 1 hour at room temperature. The blots were probed with anti-EGFR antibody (Cell Signaling, Danvers, Mass.; cat. no. 4405) or with a β-actin antibody (Millipore, Billerica, Mass.; Mab1501) diluted in 5% NFDM or 5% BSA overnight, with shaking at 4° C. For EphA2 detection, the blots were probed with an anti-EphA2 polyclonal antibody (Santa Cruz Biotechnology, Santa Cruz, Calif.; sc-294). The blots were washed three times with TBST and probed with goat anti-rabbit IgG (Santa Cruz, sc-2004) or with goat anti-mouse IgG (Santa Cruz, sc-2005) linked to horseradish peroxidase (HRP). Bands were visualized on film (Pierce) using the ECL reagent, SuperSignal West Pico™ (Pierce).
As described above, we chose siRNA targeting EGFR; knockdown of this receptor is non-lethal, but has clinical relevance in the treatment of drug resistant ovarian carcinomas. To determine if we could effectively knockdown EGFR in vitro, EGFR siRNA was encapsulated at a concentration of 16.6 μg of EGFR siRNA/mg of nanogels, using the loading technique described above. […]
A general note: In western blotting, separated proteins are transferred to a membrane and probed.

Data set [4] has as its system Hey cells. Put plainly: Chemosensitization to docetaxel (Tox8), Hey cells. The settings on record: control treatments. Here is the method:
Treatment with docetaxel. Hey or SK-OV-3 cells were plated in 96-well cell culture plates at a concentration of 1×10^4 cells/well. Hey or SK-OV-3 cells were subjected to nanogel delivery of siRNA at nanogel concentrations of 1000, 100, 10, and 1 μg/mL. Forty-eight hours after siRNA delivery, docetaxel was added to Hey or SK-OV-3 cells at concentrations ranging from 0.01-1000 nM. Treatment wells were set up in triplicate, and the cells were incubated with docetaxel for an additional 4 days. After treatment, the cells were washed with PBS, and 100 μL of medium was added back to the wells. To this, 10 μL of Tox8 was added to determine cell viability. The cells were incubated with the Tox8 reagent according to the manufacturer's instructions. The fluorescence was measured ([…]) by a Spectramax Gemini Fluorescence Microplate Reader (Molecular Devices, Sunnyvale, Calif.). Wells without cells but with Tox8 were used as controls and subtracted from all treatments as background. Each experiment was performed in duplicate.
Statistical analysis. Statistical analysis of the immunoblot data was performed using a non-parametric ANOVA (Kruskal Wallis) test. If significance was indicated, a Dunn's post-test was used to determine significance between groups. […]

In the case of “SCR-conjugated nanogels: nanogels bearing the scrambled peptide DYPSMAMYSPSVC (SEQ ID NO 2), control (also: conjugated to nanogels) [reference compound]”, the “blue (dead) cells” value in data set [1] is recorded as “not observed”. Also, the “cell fluorescence relative to cell autofluorescence” value in data set [2] was “only slightly greater than the cell autofluorescence background signal”.
For the substance “YSAYPDSVPMMSC (listed as Homo sapiens) [YSA peptide]”, in data set [3], the “EGFR expression of control treatments compared to untreated cells” value is reported as “diminished EGFR expression”. Moreover, the “sensitivity to docetaxel versus untreated controls” value in data set [4] is listed as “increased sensitivity to docetaxel”.
